Patent US8133906B2, “Method of treating amblyopia” (Hermo Pharma Oy, priority 2007, dated 2012)
Entries after “also recorded” stand apart in the source; their conditions may differ.

Assays:
[1] = test system: adult rats, visual cortex contralateral to the deprived eye; assay: Intracortical infusion of diazepam or vehicle during MD in fluoxetine treated rats, C/I VEP ratio; type: in vivo, rat; conditions: cortical diazepam 2 mg/ml during last week of chronic fluoxetine
Description: Additional doses of urethane were used to keep the anesthesia level stable throughout the experiment. Body temperature was continuously monitored and maintained at ˜37° C. by a thermostated electric blanket during the experiment. An ECG was continuously monitored. A hole was drilled in the skull, corresponding to the binocular portion of the primary visual cortex (binocular area OclB) contralateral to the deprived eye. After exposure of the brain surface, the dura was removed, and a micropipette (2 MΩ) filled with NaCl (3 M) was inserted into the cortex 5 mm from λ (intersection between sagittal- and lambdoid-sutures). Both eyes were fixed and kept open by means of adjustable metal rings surrounding the external portion of the eye bulb. We measured visual acuity through both eyes using visual evoked potentials (VEPs). During recording through one eye, the other was covered by a black adhesive tape. […] Transient VEPs in response to abrupt contrast reversal (0.5 Hz) were evaluated in the time domain by measuring the peak-to-baseline amplitude and peak latency of the major negative component. Visual stimuli were horizontal sinusoidal gratings of different spatial frequencies and contrast, generated by a VSG2/2 card running custom software and presented on a monitor (20×22 cm; luminance 15 cd m^−2) positioned 20 cm from the rat's eyes and centred on the previously determined receptive fields. […]

[2] = test system: adult Long-Evans hooded rats, binocular visual cortex contralateral to the deprived eye; assay: Ocular dominance plasticity after one week of monocular deprivation (MD) in adult rats, C/I VEP ratio; type: in vivo, rat; conditions: fluoxetine alone, without deprivation of one eye
Description: Adult Long-Evans hooded rats were used in this study. Animals were group-housed under standard conditions with food and water ad libitum in plexiglass cages (40×30×20 cm) and kept in a 12:12 light/dark cycle.
Adult animals, under treatment, were anesthetized with avertin (1 ml kg^−1) and mounted on a stereotaxic apparatus to be monocularly deprived. Eyelid closure was inspected daily until complete cicatrization; subjects with even minimal spontaneous re-opening were excluded. Great care was taken during the first days after MD to prevent inflammation or infection of the deprived eye through topical application of antibiotic and cortisone.
Additional doses of urethane were used to keep the anesthesia level stable throughout the experiment. Body temperature was continuously monitored and maintained at ˜37° C. by a thermostated electric blanket during the experiment. An ECG was continuously monitored. A hole was drilled in the skull, corresponding to the binocular portion of the primary visual cortex (binocular area OclB) contralateral to the deprived eye. […] We measured visual acuity through both eyes using visual evoked potentials (VEPs). […] Transient VEPs in response to abrupt contrast reversal (0.5 Hz) were evaluated in the time domain by measuring the peak-to-baseline amplitude and peak latency of the major negative component. […]

[3] = test system: adult amblyopic rats, visual cortex contralateral to the long-term deprived eye; assay: VEP recording of visual acuity and binocularity in adult amblyopic rats (long-term MD from P21, reverse suture); type: in vivo, rat; conditions: long-term MD from P21, reverse suture last two weeks of 4-week fluoxetine, n=5, control 0.62±0.06, fellow eye 1.06±0.01
Description: (§1) This method of administration yields steady-state plasma concentrations of 356±99 ng/ml in rats, which is within the recommended plasma concentration for the treatment of depression in humans (50-450 ng/ml).
To perform analysis of long-term MD, rats were anesthetized with avertin (1 ml kg^−1) and monocularly deprived through eyelid suturing at P21. Eyelid closure was inspected daily until complete cicatrization; subjects with even minimal spontaneous re-opening were excluded. […] The long-term deprived eye was re-opened using thin scissors, while the other eye was sutured shut. […]
Additional doses of urethane were used to keep the anesthesia level stable throughout the experiment. Body temperature was continuously monitored and maintained at ˜37° C. by a thermostated electric blanket during the experiment. An ECG was continuously monitored. […] We measured visual acuity through both eyes using visual evoked potentials (VEPs). […] Transient VEPs in response to abrupt contrast reversal (0.5 Hz) were evaluated in the time domain by measuring the peak-to-baseline amplitude and peak latency of the major negative component. […] Binocularity (ocular dominance) was assessed calculating the contralateral to ipsilateral (C/I) VEP ratio, i.e. the ratio of VEP amplitudes recorded by stimulating the eye respectively contralateral and ipsilateral to the visual cortex where recording is performed.

adult amblyopic rats = assay: Behavioral assessment of visual acuity (visual water task) in adult amblyopic rats; type: in vivo, rat; conditions: reverse suture, 4-week fluoxetine, n=5
Description: as §1
To perform analysis of long-term MD, rats were anesthetized with avertin (1 ml kg^−1) and monocularly deprived through eyelid suturing at P21. Eyelid closure was inspected daily until complete cicatrization; subjects with even minimal spontaneous re-opening were excluded. […] The long-term deprived eye was re-opened using thin scissors, while the other eye was sutured shut. Great care was taken during the first days after RS to prevent inflammation or infection in the previously deprived eye through topical application of antibiotic and cortisone.
Then, after RS, during the third week of treatment (P90), we started measuring visual acuity of the long term deprived eye. […] To measure visual acuity, we used the visual water task (Prusky et al., 2000) which trains animals to first distinguish a low (0.1 cycles per degree (c deg^−1)) spatial frequency vertical grating from grey, and then tests the limit of this ability at higher spatial frequencies. The apparatus consists of a trapezoidal-shaped pool with two panels placed side by side at one end. […] A trial is recorded as incorrect if an animal enters the arm without the platform. […]

BDNF = BDNF protein expression by ELISA after repeated fluoxetine administration; type: in vivo, rat; conditions: adult rats
Description: as §1
Proteins from fresh visual cortex and hippocampus were initially extracted, respectively, using lysis buffer (1% Triton X-100, 10% Glycerol, 20 mM TrisHCl pH 7.5, 150 mM NaCl, 10 mM EDTA, 0.1 mM Na3VO4, 1¼ g/ml Leupeptin, 1¼ g/ml Aprotinin, 1 mM PMSF). The total concentration of samples was quantified with the protein assay kit (Bio-Rad, Hercules, Calif.) using a BSA based standard curve. Afterwards, BDNF expression was assessed loading 100 μg of total proteins in triplicate in a standard ELISA plate together with a standard curve and processed as indicated in the manufacturer protocol (BDNF, Promega).

[4] = test system: extracellular GABA and glutamate in visual cortex; assay: In vivo brain microdialysis in the visual cortex with HPLC of GABA and glutamate; design: species or system rat; conditions: adult rats, repeated fluoxetine
Description: After the end of repeated treatment with fluoxetine, the in vivo sampling of dialysates was performed inserting a microdialysis probe into the guide shaft previously implanted. A detailed description of the procedure followed is reported in (Hernandez et al., 1986). Briefly, the probe was made of concentric fused-silica polyimide covered capillary tube into a 26 gauge stainless steel tube with a 1 mm long tip of exposed cellulose membrane (6000 MW cut-off). It was connected to a dialysis system pumping an artificial CSF (142 mM NaCl, 3.9 mM KCl, 1.2 mM CaCl2, 1 mM MgCl2, 1.35 mM Na2HPO4, pH 7.4) at a flow rate of 1 μl min^−1. The probe protruded 1 mm from the tip of the guide shaft. Six hours after insertion of the probe (stabilization period), sampling was carried out.
After brain microdialysis, rats were sacrificed with an overdose of chloral hydrate and perfused intracardially as described above. Brains were post-fixed for two hours before being immersed in 30% sucrose in PBS. […]
Analysis of γ-aminobutyric acid (GABA) and glutamate (GLU) basal levels from microdialysates was performed using High Performance Liquid Chromatography (HPLC) coupled to a fluorimetric detection system. […] Homoserine was used as internal standard and amino-acid concentrations were calculated from a linear standard curve built upon known concentrations of injected amino acids. […]

[5] = test system: adult rat visual cortex slices; assay: LTP recordings in visual cortex slices after theta-burst stimulation from the white matter (WM-LTP); conditions: slices from fluoxetine treated adult rats (P100), measured 20-30 min following TBS
Excerpt: Slices (0.35 mm thick) of visual cortex were obtained using a Leica (Nussloch, Germany) vibratome. […] The recording solution was composed as the cutting solution with the following differences (in mM): 130 NaCl, 5.0 dextrose, 1.0 MgCl2, 2.0 CaCl2, 0.01 glycine, no kynurenate, no sucrose. Electrical stimulation (100 μsec duration) was delivered with a bipolar concentric stimulating electrode (FHC, St. Bowdoinham, Me.) placed at the border of the white matter and layer VI. Field potentials in layers II-III were recorded by a micropipette (1-3MΩ) filled with NaCl (3 M). Baseline responses were obtained every 30 sec with a stimulation intensity that yielded a half-maximal response. After achievement of a 15 min stable baseline (field potential amplitude within 15% of change and with no evident increasing or decreasing trends), θ burst stimulation (TBS) was delivered. Postsynaptic field potentials after TBS were recorded every 30 sec during 30 min.

[6] = humans; cited from earlier work

Row | Structure (SMILES) | Effect on OD shift induced by MD in fluoxetine treated rats [1] | Responsiveness of either eye to visual stimulation [2] | Visual acuity of the formerly deprived eye (VEP) [3] | Visual acuity of the formerly deprived eye (behavioral, visual water box task) (adult amblyopic rats) | BDNF protein expression in hippocampus vs controls (BDNF; t-test p<0.01 n=6) | BDNF protein expression in visual cortex vs controls (BDNF; t-test p<0.04 n=6) | Extracellular glutamate (GLU) levels vs controls ([4]; data not shown) | Basal extracellular levels of GABA in visual cortex vs controls ([4]; n=5, p<0.02) | WM-LTP of layer II-III field potentials after theta-burst stimulation vs controls [5] | Recommended (therapeutic) plasma concentration for the treatment of depression [6]
1 | CN1C(=O)CN=C(c2ccccc2)c2cc(Cl)ccc21 [diazepam] | prevented the restoration of OD plasticity; also recorded: totally prevented | – | – | – | – | – | – | – | – | –
2 | CNCCC(Oc1ccc(C(F)(F)F)cc1)c1ccccc1 (stereo not shown) [fluoxetine] | – | did not produce any changes | 0.97±0.04 c deg^−1 | 0.88±0.02 c deg^−1 | significantly higher; also recorded: similarly enhanced | significantly higher | No difference | significantly lower; also recorded: significant reduction | significantly enhanced; also recorded: fully restored | 50 to 450 ng/mL
